In the Kinase Knowledgebase extract (Sharma et al. 2016):

What follows are compounds tested against PIK3CA (human) (UniProt P42336) (assay: Assessment of PI3KCA Kinase Activity).
Chain of PIK3CA (human) (P42336 whole entry, looked up): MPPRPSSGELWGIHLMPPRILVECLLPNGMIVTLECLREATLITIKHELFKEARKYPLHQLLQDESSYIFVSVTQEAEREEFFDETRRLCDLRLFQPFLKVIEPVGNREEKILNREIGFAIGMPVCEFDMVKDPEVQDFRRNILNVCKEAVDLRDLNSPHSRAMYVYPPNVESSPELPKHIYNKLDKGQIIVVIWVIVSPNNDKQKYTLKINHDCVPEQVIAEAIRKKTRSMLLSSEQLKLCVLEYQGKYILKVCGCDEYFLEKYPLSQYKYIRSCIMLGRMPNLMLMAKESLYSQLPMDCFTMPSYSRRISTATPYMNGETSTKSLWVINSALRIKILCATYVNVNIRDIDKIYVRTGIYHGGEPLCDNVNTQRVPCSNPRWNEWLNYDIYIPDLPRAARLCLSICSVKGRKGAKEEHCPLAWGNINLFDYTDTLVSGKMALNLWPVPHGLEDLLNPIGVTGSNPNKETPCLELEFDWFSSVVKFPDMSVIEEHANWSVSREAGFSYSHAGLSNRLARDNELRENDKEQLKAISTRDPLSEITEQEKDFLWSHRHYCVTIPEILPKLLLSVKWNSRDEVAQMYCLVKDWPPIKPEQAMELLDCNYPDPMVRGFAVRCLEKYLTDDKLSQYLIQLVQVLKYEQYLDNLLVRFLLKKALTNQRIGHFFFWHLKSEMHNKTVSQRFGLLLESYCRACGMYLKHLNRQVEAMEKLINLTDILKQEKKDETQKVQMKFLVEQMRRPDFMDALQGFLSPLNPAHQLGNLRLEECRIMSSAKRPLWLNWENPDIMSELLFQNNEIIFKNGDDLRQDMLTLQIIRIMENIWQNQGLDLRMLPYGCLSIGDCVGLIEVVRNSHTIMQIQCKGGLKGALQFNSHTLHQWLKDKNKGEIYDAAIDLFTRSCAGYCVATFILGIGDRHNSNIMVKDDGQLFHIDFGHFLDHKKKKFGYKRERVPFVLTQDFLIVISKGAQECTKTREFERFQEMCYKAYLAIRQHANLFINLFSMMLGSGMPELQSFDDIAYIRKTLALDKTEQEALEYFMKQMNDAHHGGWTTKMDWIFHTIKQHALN

Compared with C[C@H](O)C(=O)Nc1cc(-c2sc(-c3nnc[nH]3)c(-c3ccc(Cl)cc3Cl)c2C#N)ccn1, CC(=O)Nc1cc(-c2sc(-c3nnc[nH]3)c(-c3ccc(Cl)cc3Cl)c2C#N)ccn1 is lower in IC50: 100 to 1000 nM for the first, less than 100 nM for the second. The second is the more potent here.

First: c1ccc(-c2nc(-c3cnn4ccccc34)sc2-c2nnc[nH]2)cc1
Second: c1ccc(-c2nc(-c3ccnc4[nH]ccc34)sc2-c2nnc[nH]2)cc1
The IC50 of the first is higher: 100 to 1000 nM for the first, less than 100 nM for the second. The second is the more potent here.

Clc1ccc(-c2cc(-c3ccnc4sccc34)sc2-c2ncc[nH]2)c(Cl)c1 and Clc1ccc(-c2cc(-c3ccnc4[nH]ccc34)sc2-c2ncc[nH]2)c(Cl)c1 cannot be ordered by IC50: less than 100 nM for the first, less than 100 nM for the second.

Compared with CC(=O)Nc1cc(-c2nc(-c3ccc(C(F)(F)F)cc3)c(-c3ncc[nH]3)s2)ccn1, CC(=O)Nc1cc(-c2nc(-c3ccc(C(C)(C)C#N)cc3)c(-c3ncc[nH]3)s2)ccn1 is higher in IC50: less than 100 nM for the first, 100 to 1000 nM for the second. The first is the more potent here.

CC(=O)Nc1cc(-c2nc(-c3cc(CO)ccc3Cl)c(-c3ncc[nH]3)s2)ccn1 and CC(=O)Nc1cc(-c2nc(-c3ccc(Cl)cc3Cl)c(-c3ncc[nH]3)s2)ccn1 cannot be ordered by IC50: less than 100 nM for the first, less than 100 nM for the second.

Cc1nn2ccc(OCCN3CCOCC3)cc2c1-c1nc(-c2ccccc2)c(-c2nnc[nH]2)s1 and Cc1nn2ccc(OCCCN3CCOCC3)cc2c1-c1nc(-c2ccccc2)c(-c2nc[nH]n2)s1 cannot be ordered by IC50: less than 100 nM for the first, less than 100 nM for the second.

First: CC(=O)Nc1cc(-c2sc(-c3ccn[nH]3)c(-c3ccc(Cl)cc3Cl)c2C#N)ccn1
Second: CNC(=O)Nc1cc(-c2sc(-c3ccn[nH]3)c(-c3ccc(Cl)cc3Cl)c2C#N)ccn1
The IC50 of the first is lower: less than 100 nM for the first, 100 to 1000 nM for the second. The first is the more potent here.

First: Cc1nn2ccsc2c1-c1nc(-c2ccccc2)c(-c2nccs2)s1
Second: Cc1nn2ccsc2c1-c1nc(-c2ccccc2)c(-c2cocn2)s1
The IC50 of the first is lower: less than 100 nM for the first, 100 to 1000 nM for the second. The first is the more potent here.

First: CCOc1nc(-c2ccnc(NC(=O)c3ccco3)c2)sc1-c1nnc[nH]1
Second: CCOc1nc(-c2ccnc(NC(=O)c3ccno3)c2)sc1-c1nnc[nH]1
The IC50 of the first is higher: 100 to 1000 nM for the first, less than 100 nM for the second. The second is the more potent here.

Cc1nn2ccccc2c1-c1nc(N(C)c2ccc(Cl)cc2)c(-c2nnc[nH]2)s1 and Cc1nn2ccccc2c1-c1nc(-c2ccccc2F)c(-c2nnc[nH]2)s1 cannot be ordered by IC50: less than 100 nM for the first, less than 100 nM for the second.

First: COC[C@@H]1CCCN1CCC(=O)Nc1cc(-c2nc(-c3ccccc3)c(-c3nnc[nH]3)s2)ccn1
Second: O=C(Nc1cc(-c2nc(-c3ccccc3)c(-c3nnc[nH]3)s2)ccn1)C1CC1
The IC50 of the first is higher: 100 to 1000 nM for the first, less than 100 nM for the second.

Cc1n[nH]c(C)c1-c1nc(-c2c(C)nn3ccccc23)sc1-c1nc[nH]n1 and Cc1ccc(-c2nc(-c3c(C)nn4ccccc34)sc2-c2nc[nH]n2)s1 cannot be ordered by IC50: less than 100 nM for the first, less than 100 nM for the second.

Cc1nc2scc(C)n2c1-c1nc(-c2ccccc2)c(-c2nc[nH]n2)s1 and Cc1nc2ccc(Br)cn2c1-c1nc(-c2ccccc2)c(-c2nc[nH]n2)s1 fall in the same range of IC50: 100 to 1000 nM for the first, 100 to 1000 nM for the second.

Cc1nn2ccc(OCCNC(=O)C(C)(C)N)cc2c1-c1nc(-c2ccccc2)c(-c2nc[nH]n2)s1 and Cc1nn2ccc(OCCNC(=O)c3cn(C)cn3)cc2c1-c1nc(-c2ccccc2)c(-c2nc[nH]n2)s1 cannot be ordered by IC50: less than 100 nM for the first, less than 100 nM for the second.

Nc1cc(-c2nc(-c3ccc(Cl)cc3Cl)c(-c3ncc[nH]3)s2)ccn1 and COC(=O)Nc1cc(-c2nc(-c3ccc(Cl)cc3Cl)c(-c3ncc[nH]3)s2)ccn1 cannot be ordered by IC50: less than 100 nM for the first, less than 100 nM for the second.

Clc1ccc(-c2cc(-c3ncnc4[nH]ccc34)sc2-c2ncc[nH]2)c(Cl)c1 and CC(=O)Nc1cc(-c2cc(-c3ccc(Cl)cc3Cl)c(-c3ncc[nH]3)s2)ncn1 cannot be ordered by IC50: less than 100 nM for the first, less than 100 nM for the second.

First: Cc1nn2ccccc2c1-c1nc(-c2cnn(Cc3cccnc3)c2)c(-c2nc[nH]n2)s1
Second: Cc1nn2ccccc2c1-c1nc(-c2cnc3ccccc3c2)c(-c2nc[nH]n2)s1
The IC50 of the first is higher: 100 to 1000 nM for the first, less than 100 nM for the second. The second is the more potent here.

N#Cc1c(-c2ccnc(NC(=O)C3CC3)c2)sc(-c2ncc[nH]2)c1-c1ccc(Cl)cc1Cl and N#Cc1c(-c2ccnc(NC(=O)C3CC3)c2)sc(-c2nnc[nH]2)c1-c1ccc(Cl)cc1Cl cannot be ordered by IC50: less than 100 nM for the first, less than 100 nM for the second.

CCC(=O)Nc1cc(-c2sc(-c3nnc[nH]3)c(-c3ccc(Cl)cc3Cl)c2C#N)ccn1 and CNC(=O)Nc1cc(-c2sc(-c3nnc[nH]3)c(-c3ccc(Cl)cc3Cl)c2C#N)ccn1 cannot be ordered by IC50: less than 100 nM for the first, less than 100 nM for the second.

Cc1nc2ccc(CN3CCNCC3)cn2c1-c1nc(-c2ccccc2)c(-c2nnc[nH]2)s1 and Cc1nc2ccc(CN3CC[C@H](N)C3)cn2c1-c1nc(-c2ccccc2)c(-c2nnc[nH]2)s1 cannot be ordered by IC50: less than 100 nM for the first, less than 100 nM for the second.

Compared with CCOc1nc(-c2ccnc(NC(=O)c3ccc(N(C)C)cc3)c2)sc1-c1nnc[nH]1, CCOc1nc(-c2ccnc(NC(C)=O)c2)sc1-c1nnc[nH]1 is lower in IC50: 100 to 1000 nM for the first, less than 100 nM for the second. The second is the more potent here.

COc1cccc(F)c1-c1nc(-c2c(C)nn3ccccc23)sc1-c1nc[nH]n1 and COc1cccc(Cl)c1-c1nc(-c2c(C)nn3ccccc23)sc1-c1nc[nH]n1 cannot be ordered by IC50: less than 100 nM for the first, less than 100 nM for the second.

CC(=O)Nc1cc(-c2nc(-c3ccc(Oc4ccccc4)cc3)c(-c3ncc[nH]3)s2)ccn1 and CC(=O)Nc1cc(-c2nc(-c3csc4ccccc34)c(-c3ncc[nH]3)s2)ccn1 fall in the same range of IC50: 100 to 1000 nM for the first, 100 to 1000 nM for the second.

First: CCOc1nc(-c2ccnc(NC(=O)C(C)C)c2)sc1-c1nnc[nH]1
Second: CC(=O)Nc1cc(-c2nc(-c3ccccc3)c(-c3nnc[nH]3)s2)ccn1
The IC50 of the first is higher: 100 to 1000 nM for the first, less than 100 nM for the second. The second is the more potent here.

Compared with Cc1nn2ccccc2c1-c1nc(-c2ccc(CO)cc2)c(-c2nc[nH]n2)s1, Cc1nn2ccccc2c1-c1nc(-c2ccc(CN)cc2)c(-c2nc[nH]n2)s1 is higher in IC50: less than 100 nM for the first, 100 to 1000 nM for the second.

CC(=O)Nc1cc(-c2nc(-c3ccc4c(c3)OCO4)c(-c3ncc[nH]3)s2)ccn1 and CC(=O)Nc1cc(-c2nc(-c3ccc(Cl)c(Cl)c3)c(-c3ncc[nH]3)s2)ccn1 cannot be ordered by IC50: less than 100 nM for the first, less than 100 nM for the second.

Compared with CC(=O)Nc1cc(-c2nc(-c3cn(C)nc3C(F)(F)F)c(-c3ncc[nH]3)s2)ccn1, CC(=O)Nc1cc(-c2nc(-c3ccsc3)c(-c3ncc[nH]3)s2)ccn1 is higher in IC50: less than 100 nM for the first, 100 to 1000 nM for the second. The first is the more potent here.

CNc1cc(-c2sc(-c3nnc[nH]3)c(-c3ccc(Cl)cc3Cl)c2C#N)ccn1 and N#Cc1c(-c2ccnc(NCCO)c2)sc(-c2nnc[nH]2)c1-c1ccc(Cl)cc1Cl cannot be ordered by IC50: less than 100 nM for the first, less than 100 nM for the second.

CC(=O)Nc1cc(-c2sc(-c3nnc(Br)[nH]3)c(-c3ccc(Cl)cc3Cl)c2C#N)ccn1 and CC(=O)Nc1cc(-c2sc(-c3cnn[nH]3)c(-c3ccc(Cl)cc3Cl)c2C#N)ccn1 cannot be ordered by IC50: less than 100 nM for the first, less than 100 nM for the second.

Cc1nn2ccccc2c1-c1nc(-c2c(F)cccc2Cl)c(-c2nc[nH]n2)s1 and Cc1nn2ccccc2c1-c1nc(-c2ccccc2N)c(-c2nc[nH]n2)s1 cannot be ordered by IC50: less than 100 nM for the first, less than 100 nM for the second.

Cc1nn2ccc(OCCN3CCC(F)CC3)cc2c1-c1nc(-c2ccccc2)c(-c2nc[nH]n2)s1 and Cc1nn2ccc(OCCN3CCN(C)CC3)cc2c1-c1nc(-c2ccccc2)c(-c2nc[nH]n2)s1 cannot be ordered by IC50: less than 100 nM for the first, less than 100 nM for the second.

First: CC(C)(C)OC(=O)Nc1cc(-c2sc(-c3nnc[nH]3)c(-c3ccc(Cl)cc3Cl)c2C#N)ccn1
Second: COC(=O)Nc1cc(-c2sc(-c3ncc[nH]3)c(-c3ccc(Cl)cc3Cl)c2C#N)ccn1
The IC50 of the first is higher: 100 to 1000 nM for the first, less than 100 nM for the second.

Cc1nn2ccsc2c1-c1nc(-c2ccc(F)c(F)c2)c(-c2nnc[nH]2)s1 and Cc1nn2ccsc2c1-c1nc(-c2ccccc2)c(-c2nnc[nH]2)s1 cannot be ordered by IC50: less than 100 nM for the first, less than 100 nM for the second.

C=Cc1ccc2nc(C)c(-c3nc(-c4ccccc4)c(-c4nc[nH]n4)s3)n2c1 and Cc1nc2ccc(-c3cnn(C)c3)cn2c1-c1nc(-c2ccccc2)c(-c2nc[nH]n2)s1 cannot be ordered by IC50: less than 100 nM for the first, less than 100 nM for the second.

Compared with Cc1nn2ccccc2c1-c1nc(-c2ccc(N3CCOCC3)nc2)c(-c2nc[nH]n2)s1, Cc1nn2ccccc2c1-c1nc(-c2cn(C)nc2C(F)(F)F)c(-c2nc[nH]n2)s1 is lower in IC50: 100 to 1000 nM for the first, less than 100 nM for the second. The second is the more potent here.

COC(=O)c1cnc(-c2sc(-c3ccnc(NC(C)=O)c3)c(C#N)c2-c2ccc(Cl)cc2Cl)[nH]1 and N#Cc1c(-c2ccnc(NC(=O)c3cccnc3)c2)sc(-c2nnc[nH]2)c1-c1ccc(Cl)cc1Cl fall in the same range of IC50: 100 to 1000 nM for the first, 100 to 1000 nM for the second.

First: COCCNc1nccc(-c2sc(-c3nnc[nH]3)c(-c3ccc(Cl)cc3Cl)c2C#N)n1
Second: N#Cc1c(-c2ccncc2)sc(C(N)=O)c1-c1ccc(Cl)cc1Cl
The IC50 of the first is lower: less than 100 nM for the first, 100 to 1000 nM for the second.

Compared with O=c1ccc2c(-c3nc(-c4ccc(Cl)cc4Cl)c(-c4ncc[nH]4)s3)ccnc2[nH]1, CC(=O)Nc1cc(-c2nc(-c3cccc(Cl)c3)c(-c3ncc[nH]3)s2)ccn1 is higher in IC50: less than 100 nM for the first, 100 to 1000 nM for the second. The first is the more potent here.

Cc1nn2ccccc2c1-c1cc(-c2ccc(Cl)cc2Cl)c(-c2ncc[nH]2)s1 and Cc1nn2ccc(OC3CCNCC3)cc2c1-c1nc(-c2ccccc2)c(-c2nc[nH]n2)s1 cannot be ordered by IC50: less than 100 nM for the first, less than 100 nM for the second.
